Among the data in patent US9340590B2 (priority 2011, dated 2016) are IC50 values, retold here.

Read-outs that look alike come from different tables or passages of the source. Positions of bridges follow the written chain, without caps; N, C: chain ends. Residues, ends and D or L forms follow the SMILES beside them.

Holding throughout (experiment): cell-based
Assay [1] has as its target hNav1.3 (Homo sapiens, UniProt Q9NY46). The conditions noted are these: IonWorks Quattro, read-out: IWQ Use Nav1.3.
Assay [2] deals with hNav1.5 (Homo sapiens, UniProt Q14524).
Sequence of hNav1.5 (Q14524 whole entry, looked up): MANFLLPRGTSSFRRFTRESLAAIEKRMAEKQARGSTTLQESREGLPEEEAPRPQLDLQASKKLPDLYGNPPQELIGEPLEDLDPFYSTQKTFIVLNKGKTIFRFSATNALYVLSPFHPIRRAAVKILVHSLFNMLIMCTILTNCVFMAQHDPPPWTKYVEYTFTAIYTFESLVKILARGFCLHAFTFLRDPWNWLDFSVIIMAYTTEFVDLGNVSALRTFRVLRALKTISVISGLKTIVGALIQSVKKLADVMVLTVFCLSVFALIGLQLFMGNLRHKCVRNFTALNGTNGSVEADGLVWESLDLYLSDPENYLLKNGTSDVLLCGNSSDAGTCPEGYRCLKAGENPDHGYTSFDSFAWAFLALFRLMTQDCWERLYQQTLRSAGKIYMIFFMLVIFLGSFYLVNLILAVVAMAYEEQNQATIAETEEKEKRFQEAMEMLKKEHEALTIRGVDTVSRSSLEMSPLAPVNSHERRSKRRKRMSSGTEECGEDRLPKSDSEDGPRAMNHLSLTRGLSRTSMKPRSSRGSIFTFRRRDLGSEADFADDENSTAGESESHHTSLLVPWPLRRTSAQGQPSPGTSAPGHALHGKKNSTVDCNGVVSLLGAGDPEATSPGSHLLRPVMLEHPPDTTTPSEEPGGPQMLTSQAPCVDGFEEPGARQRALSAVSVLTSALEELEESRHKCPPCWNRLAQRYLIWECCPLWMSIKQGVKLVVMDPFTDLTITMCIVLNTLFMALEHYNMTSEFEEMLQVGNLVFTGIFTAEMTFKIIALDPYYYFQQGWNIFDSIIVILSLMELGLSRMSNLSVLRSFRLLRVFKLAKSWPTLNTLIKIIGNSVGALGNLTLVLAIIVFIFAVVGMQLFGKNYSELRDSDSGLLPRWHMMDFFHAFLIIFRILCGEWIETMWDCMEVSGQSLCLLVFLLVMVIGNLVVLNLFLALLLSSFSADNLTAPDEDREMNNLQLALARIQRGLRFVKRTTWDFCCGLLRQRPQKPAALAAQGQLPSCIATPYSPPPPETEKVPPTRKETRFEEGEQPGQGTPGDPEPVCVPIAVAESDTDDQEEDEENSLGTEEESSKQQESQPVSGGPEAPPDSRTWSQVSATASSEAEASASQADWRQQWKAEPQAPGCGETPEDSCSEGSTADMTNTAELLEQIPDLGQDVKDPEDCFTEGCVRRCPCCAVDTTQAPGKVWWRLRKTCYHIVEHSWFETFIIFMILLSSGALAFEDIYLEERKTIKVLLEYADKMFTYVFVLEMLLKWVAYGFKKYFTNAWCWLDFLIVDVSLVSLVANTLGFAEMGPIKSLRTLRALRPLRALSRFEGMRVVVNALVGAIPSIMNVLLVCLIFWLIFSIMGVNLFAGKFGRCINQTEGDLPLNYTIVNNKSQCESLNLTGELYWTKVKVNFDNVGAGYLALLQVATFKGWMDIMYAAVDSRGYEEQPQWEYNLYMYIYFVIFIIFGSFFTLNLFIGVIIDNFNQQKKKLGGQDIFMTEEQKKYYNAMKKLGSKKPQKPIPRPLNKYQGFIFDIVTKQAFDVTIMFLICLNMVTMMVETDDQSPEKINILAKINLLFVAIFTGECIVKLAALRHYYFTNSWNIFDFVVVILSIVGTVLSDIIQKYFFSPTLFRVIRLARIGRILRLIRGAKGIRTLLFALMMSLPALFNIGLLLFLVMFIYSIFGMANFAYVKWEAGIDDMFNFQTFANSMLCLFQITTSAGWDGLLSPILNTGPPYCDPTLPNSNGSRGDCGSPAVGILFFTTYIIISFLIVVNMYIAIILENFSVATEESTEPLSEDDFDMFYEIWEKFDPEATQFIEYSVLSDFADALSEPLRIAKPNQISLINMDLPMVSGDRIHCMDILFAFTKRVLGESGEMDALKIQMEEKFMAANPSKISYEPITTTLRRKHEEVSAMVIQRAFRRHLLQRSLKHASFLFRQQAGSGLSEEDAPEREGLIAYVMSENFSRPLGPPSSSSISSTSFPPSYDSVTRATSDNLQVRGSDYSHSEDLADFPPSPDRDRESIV
The target in assay [3] is hNav1.7 (Homo sapiens, UniProt Q15858). It is filed as cell-based. The conditions noted are these: IonWorks Quattro, read-out: IWQ Use Nav1.7.
Sequence of hNav1.7 (Q15858 whole entry, looked up): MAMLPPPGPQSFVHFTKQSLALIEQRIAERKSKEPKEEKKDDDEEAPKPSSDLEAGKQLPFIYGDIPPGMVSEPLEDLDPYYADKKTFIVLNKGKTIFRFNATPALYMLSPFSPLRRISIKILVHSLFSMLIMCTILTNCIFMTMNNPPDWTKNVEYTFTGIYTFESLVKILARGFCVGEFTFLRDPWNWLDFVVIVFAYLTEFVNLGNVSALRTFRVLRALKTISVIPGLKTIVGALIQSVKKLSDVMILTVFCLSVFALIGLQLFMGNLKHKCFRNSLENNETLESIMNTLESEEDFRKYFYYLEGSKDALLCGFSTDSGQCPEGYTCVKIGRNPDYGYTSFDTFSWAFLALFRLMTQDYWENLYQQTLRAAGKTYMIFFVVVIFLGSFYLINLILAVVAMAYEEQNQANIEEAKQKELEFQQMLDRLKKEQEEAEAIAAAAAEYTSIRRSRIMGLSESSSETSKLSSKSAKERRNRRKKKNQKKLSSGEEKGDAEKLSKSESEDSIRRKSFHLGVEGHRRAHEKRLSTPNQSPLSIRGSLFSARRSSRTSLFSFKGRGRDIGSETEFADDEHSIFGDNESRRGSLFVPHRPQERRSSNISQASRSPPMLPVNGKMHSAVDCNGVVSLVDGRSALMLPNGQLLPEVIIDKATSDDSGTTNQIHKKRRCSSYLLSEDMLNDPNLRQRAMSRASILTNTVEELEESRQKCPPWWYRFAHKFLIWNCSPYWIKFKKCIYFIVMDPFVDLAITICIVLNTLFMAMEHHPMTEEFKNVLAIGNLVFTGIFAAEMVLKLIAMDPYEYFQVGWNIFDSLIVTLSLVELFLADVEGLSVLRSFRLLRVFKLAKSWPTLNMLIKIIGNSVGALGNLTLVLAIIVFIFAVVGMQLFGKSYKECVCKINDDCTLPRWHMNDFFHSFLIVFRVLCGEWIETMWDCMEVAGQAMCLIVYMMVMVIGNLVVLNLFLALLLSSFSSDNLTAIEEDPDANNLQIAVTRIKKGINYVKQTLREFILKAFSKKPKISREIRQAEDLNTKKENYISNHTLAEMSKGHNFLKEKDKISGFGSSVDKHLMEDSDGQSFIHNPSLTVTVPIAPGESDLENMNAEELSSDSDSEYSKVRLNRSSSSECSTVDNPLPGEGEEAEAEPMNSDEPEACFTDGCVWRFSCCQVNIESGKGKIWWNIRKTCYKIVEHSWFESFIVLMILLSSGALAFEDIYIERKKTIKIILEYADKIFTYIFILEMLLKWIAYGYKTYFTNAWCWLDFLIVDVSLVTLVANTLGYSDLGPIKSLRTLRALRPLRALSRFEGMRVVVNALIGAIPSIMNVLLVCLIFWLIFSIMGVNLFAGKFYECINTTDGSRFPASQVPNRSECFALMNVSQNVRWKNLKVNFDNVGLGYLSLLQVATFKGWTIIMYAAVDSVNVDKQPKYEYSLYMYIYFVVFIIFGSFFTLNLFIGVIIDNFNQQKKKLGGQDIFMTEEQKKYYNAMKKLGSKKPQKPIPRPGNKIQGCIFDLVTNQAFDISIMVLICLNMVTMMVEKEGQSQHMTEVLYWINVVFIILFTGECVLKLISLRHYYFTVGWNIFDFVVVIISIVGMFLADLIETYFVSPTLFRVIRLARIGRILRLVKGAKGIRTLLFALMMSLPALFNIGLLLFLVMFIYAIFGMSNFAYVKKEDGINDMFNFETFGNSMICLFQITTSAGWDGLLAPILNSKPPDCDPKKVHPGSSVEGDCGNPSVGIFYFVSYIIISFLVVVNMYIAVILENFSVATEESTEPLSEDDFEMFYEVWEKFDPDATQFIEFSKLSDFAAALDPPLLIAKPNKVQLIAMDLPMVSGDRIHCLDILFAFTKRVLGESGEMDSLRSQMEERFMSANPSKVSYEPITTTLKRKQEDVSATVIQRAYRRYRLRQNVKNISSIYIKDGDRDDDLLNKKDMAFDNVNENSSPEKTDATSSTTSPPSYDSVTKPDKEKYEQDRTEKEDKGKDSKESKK
[4] abbreviates: clamped to −110 mV, depolarized to −10 mV, 5 min after compound, n=2.
The mark [5] stands for this setting: IonWorks Quattro, clamped to −110 mV, depolarized to −10 mV, 5 min after compound, n=2, read-out: IWQ Use Nav1.5.
Setting [6] is: IonWorks Quattro, use-dependent block, hNav1.5, read-out: IWQ Use Nav1.5.
[7] abbreviates: use-dependent protocol, hNav1.3.
Where [8] appears, read: use-dependent protocol, hNav1.7.

For the compound `CC[C@H](C)[C@@H]1NC(=O)[C@@H]2CSSC[C@@H]3NC(=O)[C@H](C(C)C)NC(=O)[C@H](CC(C)C)NC(=O)[C@H](CC(N)=O)NC(=O)[C@@H]4CCCN4C(=O)[C@H](CCCNC(=N)N)NC(=O)[C@H](CSSC[C@H](NC(=O)[C@@H](N)CC(=O)O)C(=O)N[C@@H](CC(C)C)C(=O)NCC(=O)N[C@@H](Cc4ccccc4)C(=O)N[C@@H](Cc4ccc(C(=O)O)cc4)C(=O)N[C@@H](CCCNC(=N)N)C(=O)N[C@@H](CCCCN)C(=O)N2)NC(=O)[C@H](CSSC[C@@H](C(=O)N[C@@H](CCCCN)C(=O)N[C@@H](Cc2ccc(O)cc2)C(=O)N[C@H](C(=O)N[C@@H](Cc2ccccc2)C(N)=O)C(C)C)NC(=O)[C@H](Cc2c[nH]c4ccccc24)NC(=O)[C@H](CCCCN)NC(=O)[C@H](Cc2c[nH]cn2)NC(=O)[C@H]([C@@H](C)O)NC(=O)[C@H](CCCNC(=N)N)NC(=O)[C@H](CO)NC3=O)NC(=O)[C@H](CCCCN)NC(=O)[C@H](CC(=O)O)NC(=O)[C@H](CC(N)=O)NC(=O)[C@H](CC(=O)O)NC(=O)[C@@H]2CCCN2C1=O` [SEQ ID NO: 293], the figures for the IC50 in assay [1] (setting [4]), in assay [2] (setting [5]) and in assay [3] (setting [4]) were 13.8 µM, 11.1 µM and 15.8 µM, respectively.
For `CC[C@H](C)[C@@H]1NC(=O)[C@@H]2CSSC[C@@H]3NC(=O)[C@H](C(C)C)NC(=O)[C@H](CC(C)C)NC(=O)[C@H](CC(N)=O)NC(=O)[C@@H]4CCCN4C(=O)[C@H](CCCNC(=N)N)NC(=O)[C@H](CSSC[C@H](NC(=O)[C@@H](N)CC(=O)O)C(=O)N[C@@H](CC(C)C)C(=O)NCC(=O)N[C@@H](C)C(=O)N[C@@H](Cc4ccccc4)C(=O)N[C@@H](CCCNC(=N)N)C(=O)N[C@@H](CCCCN)C(=O)N2)NC(=O)[C@H](CSSC[C@@H](C(=O)N[C@@H](CCCCN)C(=O)N[C@@H](Cc2ccc(O)cc2)C(=O)N[C@H](C(=O)N[C@@H](Cc2ccccc2)C(=O)O)C(C)C)NC(=O)[C@H](Cc2c[nH]c4ccccc24)NC(=O)[C@H](CCCNC(=N)N)NC(=O)[C@H](Cc2c[nH]cn2)NC(=O)[C@H]([C@@H](C)O)NC(=O)[C@H](CCCNC(=N)N)NC(=O)[C@H](CO)NC3=O)NC(=O)[C@H](CCCCN)NC(=O)[C@H](CC(=O)O)NC(=O)[C@H](CC(C)C)NC(=O)[C@H](CC(=O)O)NC(=O)[C@@H]2CCCN2C1=O` [compound 844], the IC50 in assay [1] (use-dependent block, hNav1.3) is 4.5 µM; in assay [2] (setting [6]), over 5 µM; in assay [3] (use-dependent block, hNav1.7), 4.5 µM.
Regarding `CC[C@H](C)[C@@H]1NC(=O)[C@@H]2CSSC[C@@H]3NC(=O)[C@H](C(C)C)NC(=O)[C@H](CC(C)C)NC(=O)[C@H](CC(N)=O)NC(=O)[C@@H]4CCCN4C(=O)[C@H](CCCNC(=N)N)NC(=O)[C@H](CSSC[C@H](NC(=O)[C@@H](N)CC(=O)O)C(=O)N[C@@H](CC(C)C)C(=O)NCC(=O)N[C@@H](Cc4ccccc4)C(=O)N[C@@H](CCSC)C(=O)N[C@@H](CCCNC(=N)N)C(=O)N[C@@H](CCCCN)C(=O)N2)NC(=O)[C@H](CSSC[C@@H](C(=O)N[C@@H](CCCCN)C(=O)N[C@@H](Cc2ccc(O)cc2)C(=O)N[C@H](C(=O)N[C@@H](Cc2ccccc2)C(N)=O)C(C)C)NC(=O)[C@H](Cc2c[nH]c4ccccc24)NC(=O)[C@H](CCCCN)NC(=O)[C@H](Cc2c[nH]cn2)NC(=O)[C@H]([C@@H](C)O)NC(=O)[C@H](CCCNC(N)=O)NC(=O)[C@H](CO)NC3=O)NC(=O)[C@H](CCCCN)NC(=O)[C@H](CC(=O)O)NC(=O)[C@H](CC(N)=O)NC(=O)[C@H](CC(=O)O)NC(=O)[C@@H]2CCCN2C1=O` [compound 117], the IC50 amounted to 0.51 µM in assay [1] (Use); 8.87 µM in assay [2] (IonWorks Quattro, Use, read-out: IWQ Use Nav1.5); 0.32 µM in assay [3] (Use).
For the compound `CC[C@H](C)[C@@H]1NC(=O)[C@@H]2CSSC[C@@H]3NC(=O)[C@H](C(C)C)NC(=O)[C@H](CC(C)C)NC(=O)[C@H](CC(N)=O)NC(=O)[C@@H]4CCCN4C(=O)[C@H](CCCNC(=N)N)NC(=O)[C@H](CSSC[C@H](NC(=O)[C@@H](N)CC(=O)O)C(=O)N[C@@H](CC(C)C)C(=O)NCC(=O)N[C@@H](Cc4cccs4)C(=O)N[C@@H](CC(C)C)C(=O)N[C@@H](CCCNC(=N)N)C(=O)N[C@@H](CCCCN)C(=O)N2)NC(=O)[C@H](CSSC[C@@H](C(=O)N[C@@H](CCCCN)C(=O)N[C@@H](Cc2ccc(O)cc2)C(=O)N[C@H](C(=O)N[C@@H](Cc2ccccc2)C(N)=O)C(C)C)NC(=O)[C@H](Cc2c[nH]c4ccccc24)NC(=O)[C@H](CCCCN)NC(=O)[C@H](Cc2c[nH]cn2)NC(=O)[C@H]([C@@H](C)O)NC(=O)[C@H](CCCNC(=N)N)NC(=O)[C@H](CO)NC3=O)NC(=O)[C@H](CCCCN)NC(=O)[C@H](CC(=O)O)NC(=O)[C@H](CC(N)=O)NC(=O)[C@H](CC(=O)O)NC(=O)[C@@H]2CCCN2C1=O` [compound 662], the IC50 in assay [1] (setting [7]) is 0.068 µM; in assay [2] (IonWorks Quattro, use-dependent protocol, hNav1.5, read-out: IWQ Use Nav1.5), over 5 µM; in assay [3] (setting [8]), 0.022 µM.
With `CC[C@H](C)[C@@H]1NC(=O)[C@@H]2CSSC[C@@H]3NC(=O)[C@H](C(C)C)NC(=O)[C@H](CC(C)C)NC(=O)[C@H](CC(N)=O)NC(=O)[C@@H]4CCCN4C(=O)[C@H](CCCNC(=N)N)NC(=O)[C@H](CSSC[C@H](NC(=O)[C@@H](N)CC(=O)O)C(=O)N[C@@H](CC(C)C)C(=O)NCC(=O)N[C@@H](Cc4ccc5ccccc5c4)C(=O)N[C@@H](CCSC)C(=O)N[C@@H](CCCNC(=N)N)C(=O)N[C@@H](CCCCN)C(=O)N2)NC(=O)[C@H](CSSC[C@@H](C(=O)N[C@@H](CCCCN)C(=O)N[C@@H](Cc2ccc(O)cc2)C(=O)N[C@H](C(=O)N[C@@H](Cc2ccccc2)C(N)=O)C(C)C)NC(=O)[C@H](Cc2c[nH]c4ccccc24)NC(=O)[C@H](CCCCN)NC(=O)[C@H](Cc2c[nH]cn2)NC(=O)[C@H]([C@@H](C)O)NC(=O)[C@H](CCCNC(=N)N)NC(=O)[C@H](CO)NC3=O)NC(=O)[C@H](CCCCN)NC(=O)[C@H](CC(=O)O)NC(=O)[C@H](CC(N)=O)NC(=O)[C@H](CC(=O)O)NC(=O)[C@@H]2CCCN2C1=O` [SEQ ID NO: 128], the IC50 turned out to be 0.05 µM in assay [1] (setting [4]), 6.11 µM in assay [2] (setting [5]) and 0.11 µM in assay [3] (setting [4]).
`CC[C@H](C)[C@@H]1NC(=O)[C@@H]2CSSC[C@@H]3NC(=O)[C@H](C(C)C)NC(=O)[C@H](CC(C)C)NC(=O)[C@H](CC(N)=O)NC(=O)[C@@H]4CCCN4C(=O)[C@H](CCCNC(=N)N)NC(=O)[C@H](CSSC[C@H](NC(=O)[C@@H](N)CC(=O)O)C(=O)N[C@@H](CC(C)C)C(=O)NCC(=O)N(C)[C@@H](Cc4ccccc4)C(=O)N[C@@H](CCSC)C(=O)N[C@@H](CCCNC(=N)N)C(=O)N[C@@H](CCCCN)C(=O)N2)NC(=O)[C@H](CSSC[C@@H](C(=O)N[C@@H](CCCCN)C(=O)N[C@@H](Cc2ccc(O)cc2)C(=O)N[C@H](C(=O)N[C@@H](Cc2ccccc2)C(N)=O)C(C)C)NC(=O)[C@H](Cc2c[nH]c4ccccc24)NC(=O)[C@H](CCCCN)NC(=O)[C@H](Cc2c[nH]cn2)NC(=O)[C@H]([C@@H](C)O)NC(=O)[C@H](CCCNC(=N)N)NC(=O)[C@H](CO)NC3=O)NC(=O)[C@H](CCCCN)NC(=O)[C@H](CC(=O)O)NC(=O)[C@H](CC(N)=O)NC(=O)[C@H](CC(=O)O)NC(=O)[C@@H]2CCCN2C1=O` [compound 657]: the IC50 is 0.28 µM in assay [1] (setting [7]), over 5 µM in assay [2] (IWQ Use Nav1.5) and 0.36 µM in assay [3] (setting [8]).
`CC[C@H](C)[C@@H]1NC(=O)[C@@H]2CSSC[C@@H]3NC(=O)[C@H](C(C)C)NC(=O)[C@H](CC(C)C)NC(=O)[C@H](CC(N)=O)NC(=O)[C@@H]4CCCN4C(=O)[C@H](CCCNC(=N)N)NC(=O)[C@H](CSSC[C@H](NC(=O)[C@@H](N)CC(=O)O)C(=O)N[C@@H](CC(C)C)C(=O)NCC(=O)N[C@@H](C)C(=O)N[C@@H](CC(C)C)C(=O)N[C@@H](CCCNC(=N)N)C(=O)N[C@@H](CCCCN)C(=O)N2)NC(=O)[C@H](CSSC[C@@H](C(=O)N[C@@H](CCCCN)C(=O)N[C@@H](Cc2ccc(O)cc2)C(=O)N[C@H](C(=O)N[C@@H](Cc2ccccc2)C(=O)O)C(C)C)NC(=O)[C@H](Cc2c[nH]c4ccccc24)NC(=O)[C@H](CCCNC(=N)N)NC(=O)[C@H](Cc2c[nH]cn2)NC(=O)[C@H]([C@@H](C)O)NC(=O)[C@H](CCCNC(=N)N)NC(=O)[C@H](CO)NC3=O)NC(=O)[C@H](CCCCN)NC(=O)[C@H](CC(=O)O)NC(=O)[C@H](CO)NC(=O)[C@H](CC(=O)O)NC(=O)[C@@H]2CCCN2C1=O` [compound 871] (H-DCLGALRKCIPDSDKCCRPNLVCSRTHRWCKYVF-OH; disulfide 2-17, 9-23, 16-30): the IC50 is over 5 µM in assay [1] (use-dependent block, hNav1.3); over 5 µM in assay [2] (setting [6]); over 5 µM in assay [3] (use-dependent block, hNav1.7).
